Like-named read-outs stand apart in the source and are kept apart here.
Biological target: USP7 (Homo sapiens (Human), UniProt Q93009)
Experiment: USP7 fluorescence polarisation (FP) assay with ubiquitin-Lys-TAMRA substrate
Assay type: biochemical
Conditions: biochemical inhibition
[1] = read-out: USP7 IC50 activity (Table 3a, classes)
[2] = unit not given in Table 3b (Table 1 and key of Table 3a use μM), read-out: USP7 IC50 activity (Table 3b)

USP7, sequence (Q93009 whole entry): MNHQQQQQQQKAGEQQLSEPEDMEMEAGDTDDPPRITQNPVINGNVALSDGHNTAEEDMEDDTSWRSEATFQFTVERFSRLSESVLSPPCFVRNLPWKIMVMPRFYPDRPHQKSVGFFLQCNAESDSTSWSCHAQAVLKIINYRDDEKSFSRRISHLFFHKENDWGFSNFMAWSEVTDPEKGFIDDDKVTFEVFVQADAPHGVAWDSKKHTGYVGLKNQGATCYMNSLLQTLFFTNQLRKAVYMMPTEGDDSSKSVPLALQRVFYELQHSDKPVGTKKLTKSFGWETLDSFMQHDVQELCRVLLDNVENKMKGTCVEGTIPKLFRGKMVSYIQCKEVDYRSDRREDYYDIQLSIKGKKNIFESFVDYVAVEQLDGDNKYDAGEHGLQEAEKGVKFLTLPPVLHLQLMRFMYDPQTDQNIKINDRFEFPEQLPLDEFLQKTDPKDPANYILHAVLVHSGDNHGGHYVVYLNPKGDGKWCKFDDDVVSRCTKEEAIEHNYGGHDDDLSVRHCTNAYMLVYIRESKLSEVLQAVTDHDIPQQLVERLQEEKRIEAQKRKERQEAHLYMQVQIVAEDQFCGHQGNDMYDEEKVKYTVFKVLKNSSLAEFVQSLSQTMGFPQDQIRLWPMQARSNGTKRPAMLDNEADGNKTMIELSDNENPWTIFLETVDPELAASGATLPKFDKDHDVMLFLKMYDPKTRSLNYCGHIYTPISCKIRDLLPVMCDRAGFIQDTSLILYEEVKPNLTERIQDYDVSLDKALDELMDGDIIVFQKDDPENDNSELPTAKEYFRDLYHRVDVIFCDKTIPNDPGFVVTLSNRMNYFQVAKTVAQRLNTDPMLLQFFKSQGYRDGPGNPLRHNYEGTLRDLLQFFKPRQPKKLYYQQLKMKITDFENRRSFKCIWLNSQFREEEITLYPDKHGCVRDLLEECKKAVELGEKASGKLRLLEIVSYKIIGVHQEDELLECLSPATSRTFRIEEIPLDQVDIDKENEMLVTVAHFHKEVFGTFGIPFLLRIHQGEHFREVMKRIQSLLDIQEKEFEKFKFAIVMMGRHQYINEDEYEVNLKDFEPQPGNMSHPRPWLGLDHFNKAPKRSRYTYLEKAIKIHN

Row | SMILES | IC50 [1] | IC50 [2]
1 | C[C@@H]1CN[C@H](c2ccc(-n3c(Cl)cc4c(=O)n(CC5(O)CCN(C(=O)c6ccc(Cl)cc6)CC5)cnc43)cc2)CO1 (single isomer, unassigned) [Example 69] | 0.25 to 2 µM | 0.586 µM
2 | Cc1cc(Cl)ccc1C(=O)N1CCC(O)(Cn2cnc3c(cc(Cl)n3-c3ccc([C@@H]4CO[C@@H](C)CN4)cc3)c2=O)CC1 [Example 90, 6-Chloro-3-((1-(4-chloro-2-methylbenzoyl)-4-hydroxypiperidin-4-yl)methyl)-7-(4-((3R,6S)-6-methylmorpholin-3-yl)phenyl)-3,7-dihydro-4H-pyrrolo[2,3-d]pyrimidin-4-one] | 0.25 to 2 µM | 0.293 µM
3 | C[C@H]1CN[C@H](c2ccc(-n3c(Cl)cc4c(=O)n(CC5(O)CCN(C(=O)c6ccc(F)cc6F)CC5)cnc43)cc2)CO1 [Example 22, 6-Chloro-3-((1-(2,4-difluorobenzoyl)-4-hydroxypiperidin-4-yl)methyl)-7-(4-((3R,6S)-6-methylmorpholin-3-yl)phenyl)-3,7-dihydro-4H-pyrrolo[2,3-d]pyrimidin-4-one] | 0.1 to 0.25 µM | 0.222 µM
4 | CC1(C)COCC(c2ccc(-n3c(Cl)cc4c(=O)n(CC5(O)CCN(C(=O)c6ccc(Cl)cc6)CC5)cnc43)cc2)N1 (stereo not shown) [Example 16, 6-Chloro-3-((1-(4-chlorobenzoyl)-4-hydroxypiperidin-4-yl)methyl)-7-(4-(5,5-dimethylmorpholin-3-yl)phenyl)-3,7-dihydro-4H-pyrrolo[2,3-d]pyrimidin-4-one] | 0.1 to 0.25 µM | 0.249 µM
5 | Cc1cc(-n2c(Cl)cc3c(=O)n(CC4(O)CCN(C(=O)c5ccc(Cl)cc5)CC4)cnc32)ccc1[C@H]1CO[C@H](C)CN1 [Example 12, 6-Chloro-3-((1-(4-chlorobenzoyl)-4-hydroxypiperidin-4-yl)methyl)-7-(3-methyl-4-((3S,6R)-6-methylmorpholin-3-yl)phenyl)-3,7-dihydro-4H-pyrrolo[2,3-d]pyrimidin-4-one] | 0.1 to 0.25 µM | 0.13 µM
6 | CC1(C)COCC(c2ccc(-n3c(Cl)cc4c(=O)n(CC5(O)CCN(C(=O)C6(C)CC6)CC5)cnc43)cc2)N1 (stereo not shown) [Example 15, 6-Chloro-7-(4-(5,5-dimethylmorpholin-3-yl)phenyl)-3-((4-hydroxy-1-(1-methylcyclopropane-1-carbonyl)piperidin-4-yl)methyl)-3,7-dihydro-4H-pyrrolo[2,3-d]pyrimidin-4-one] | 0.1 to 0.25 µM | 0.169 µM
7 | C[C@H]1CN[C@H](c2ccc(-n3c(Cl)cc4c(=O)n(CC5(O)CCN(C(=O)c6cccc(Cl)c6)CC5)cnc43)cc2)CO1 [Example 35, 6-Chloro-3-((1-(3-chlorobenzoyl)-4-hydroxypiperidin-4-yl)methyl)-7-(4-((3R,6S)-6-methylmorpholin-3-yl)phenyl)-3,7-dihydro-4H-pyrrolo[2,3-d]pyrimidin-4-one] | 0.1 to 0.25 µM | 0.224 µM
8 | C[C@@H]1CN[C@@H](c2ccc(-n3c(Cl)cc4c(=O)n(CC5(O)CCN(C(=O)[C@@]6(C)C[C@@H]6C(F)(F)F)CC5)cnc43)cc2)CO1 [Example 109, 6-Chloro-3-((4-hydroxy-1-((1S,2S)-1-methyl-2-(trifluoromethyl)cyclopropane-1-carbonyl)piperidin-4-yl)methyl)-7-(4-((3S,6R)-6-methylmorpholin-3-yl)phenyl)-3,7-dihydro-4H-pyrrolo[2,3-d]pyrimidin-4-one] | 0.1 to 0.25 µM | 0.182 µM
9 | C[C@@H]1CN[C@@H](c2ccc(-n3c(Cl)cc4c(=O)n(CC5(O)CCN(C(=O)c6ccccc6)CC5)cnc43)cc2)CO1 [Example 24, 3-((1-Benzoyl-4-hydroxypiperidin-4-yl)methyl)-6-chloro-7-(4-((3S,6R)-6-methylmorpholin-3-yl)phenyl)-3,7-dihydro-4H-pyrrolo[2,3-d]pyrimidin-4-one] | 0.1 to 0.25 µM | 0.25 µM
10 | O=C(c1ccc(Cl)cc1)N1CCC(O)(Cn2cnc3c(cc(Cl)n3-c3ccc(C4COC5CCCCC5N4)cc3)c2=O)CC1 (stereo not shown) [Example 53, 6-Chloro-3-((1-(4-chlorobenzoyl)-4-hydroxypiperidin-4-yl)methyl)-7-(4-(octahydro-2H-benzo[b][1,4]oxazin-3-yl)phenyl)-3,7-dihydro-4H-pyrrolo[2,3-d]pyrimidin-4-one] | 0.25 to 2 µM | 0.264 µM
11 | CC[C@H]1CN[C@H](c2ccc(-n3c(Cl)cc4c(=O)n(CC5(O)CCN(C(=O)c6ccc(F)cc6)CC5)cnc43)cc2)CO1 [Example 45, 6-Chloro-7-(4-((3R,6S)-6-ethylmorpholin-3-yl)phenyl)-3-((1-(4-fluorobenzoyl)-4-hydroxypiperidin-4-yl)methyl)-3,7-dihydro-4H-pyrrolo[2,3-d]pyrimidin-4-one] | 0.1 to 0.25 µM | 0.176 µM
12 | Cc1cc(-n2c(Cl)cc3c(=O)n(CC4(O)CCN(C(=O)c5ccccc5Cl)CC4)cnc32)ccc1[C@H]1CO[C@H](C)CN1 [Example 52, 6-Chloro-3-((1-(2-chlorobenzoyl)-4-hydroxypiperidin-4-yl)methyl)-7-(3-methyl-4-((3S,6R)-6-methylmorpholin-3-yl)phenyl)-3,7-dihydro-4H-pyrrolo[2,3-d]pyrimidin-4-one] | 0.1 to 0.25 µM | 0.179 µM

More lines, now with the values ahead:

Row | IC50 [1] | IC50 [2] | SMILES
13 | 0.1 to 0.25 µM | 0.164 µM | Cc1cc(-n2c(Cl)cc3c(=O)n(CC4(O)CCN(C(=O)c5ccc(Cl)cc5F)CC4)cnc32)ccc1[C@H]1CO[C@H](C)CN1 [Example 50, 6-Chloro-3-((1-(4-chloro-2-fluorobenzoyl)-4-hydroxypiperidin-4-yl)methyl)-7-(3-methyl-4-((3S,6R)-6-methylmorpholin-3-yl)phenyl)-3,7-dihydro-4H-pyrrolo[2,3-d]pyrimidin-4-one]
14 | 0.1 to 0.25 µM | 0.11 µM | O=C(c1ccc(Cl)cc1)N1CCC(O)(Cn2cnc3c(cc(Cl)n3-c3ccc([C@@H]4CO[C@@H](C5CC5)CN4)cc3)c2=O)CC1 (single isomer, unassigned) [Example 64]
15 | 0.1 to 0.25 µM | 0.226 µM | C[C@H]1CN[C@H](c2ccc(-n3c(Cl)cc4c(=O)n(CC5(O)CCN(C(=O)[C@@]6(C)C[C@@H]6C(F)(F)F)CC5)cnc43)cc2)CO1 (single isomer, unassigned) [Example 33, 6-Chloro-3-((4-hydroxy-1-((1R,2R)-1-methyl-2-(trifluoromethyl)cyclopropane-1-carbonyl)piperidin-4-yl)methyl)-7-(4-((3R,6S)-6-methylmorpholin-3-yl)phenyl)-3,7-dihydro-4H-pyrrolo[2,3-d]pyrimidin-4-one or 6-chloro-3-((4-hydroxy-1-((1S,2S)-1-methyl-2-(trifluoromethyl)cyclopropane-1-carbonyl)piperidin-4-yl)methyl)-7-(4-((3R,6S)-6-methylmorpholin-3-yl)phenyl)-3,7-dihydro-4H-pyrrolo[2,3-d]pyrimidin-4-one]
16 | 0.1 to 0.25 µM | 0.161 µM | C[C@H]1COC[C@@H](c2ccc(-n3c(Cl)cc4c(=O)n(CC5(O)CCN(C(=O)c6ccc(Cl)cc6)CC5)cnc43)cc2)N1 (single isomer, unassigned) [Example 26]
17 | < 0.1 µM | 0.046 µM | C[C@H]1COC[C@@H](c2ccc(-n3c(Cl)cc4c(=O)n(CC5(O)CCN(C(=O)C6(C)CC6)CC5)cnc43)cc2)N1 (racemic) [Example 2, rac-6-Chloro-3-((4-hydroxy-1-(1-methylcyclopropane-1-carbonyl)piperidin-4-yl)methyl)-7-(4-((3R,5S)-5-methylmorpholin-3-yl)phenyl)-3,7-dihydro-4H-pyrrolo[2,3-d]pyrimidin-4-one]
18 | < 0.1 µM | 0.052 µM | O=C(c1ccc(Cl)cc1)N1CCC(O)(Cn2cnc3c(cc(Cl)n3-c3ccc([C@@H]4COCCN4)cc3)c2=O)CC1 (single isomer, unassigned) [Example 77]
19 | < 0.1 µM | 0.042 µM | C[C@@H]1CN[C@@H](c2ccc(-n3c(Cl)cc4c(=O)n(CC5(O)CCN(C(=O)[C@]6(C)C[C@H]6C(F)(F)F)CC5)cnc43)cc2)CO1 [Example 108, 6-Chloro-3-((4-hydroxy-1-((1R,2R)-1-methyl-2-(trifluoromethyl)cyclopropane-1-carbonyl)piperidin-4-yl)methyl)-7-(4-((3S,6R)-6-methylmorpholin-3-yl)phenyl)-3,7-dihydro-4H-pyrrolo[2,3-d]pyrimidin-4-one]
20 | < 0.1 µM | 0.05 µM | C[C@@H]1OCCN[C@H]1c1ccc(-n2c(Cl)cc3c(=O)n(CC4(O)CCN(C(=O)c5ccc(Cl)cc5)CC4)cnc32)cc1 [Example 6, 6-Chloro-3-((1-(4-chlorobenzoyl)-4-hydroxypiperidin-4-yl)methyl)-7-(4-((2S,3S)-2-methylmorpholin-3-yl)phenyl)-3,7-dihydro-4H-pyrrolo[2,3-d]pyrimidin-4-one]
21 | < 0.1 µM | 0.091 µM | Cc1cc(-n2c(Cl)cc3c(=O)n(CC4(O)CCN(C(=O)c5ccc(F)cc5)CC4)cnc32)ccc1[C@H]1CO[C@H](C)CN1 [Example 47, 6-Chloro-3-((1-(4-fluorobenzoyl)-4-hydroxypiperidin-4-yl)methyl)-7-(3-methyl-4-((3S,6R)-6-methylmorpholin-3-yl)phenyl)-3,7-dihydro-4H-pyrrolo[2,3-d]pyrimidin-4-one]
22 | < 0.1 µM | 0.037 µM | CC[C@H]1CN[C@H](c2ccc(-n3c(Cl)cc4c(=O)n(CC5(O)CCN(C(=O)[C@]6(C)C[C@H]6C)CC5)cnc43)cc2)CO1 [Example 96, 6-Chloro-3-((1-((1R,2R)-1,2-dimethylcyclopropane-1-carbonyl)-4-hydroxypiperidin-4-yl)methyl)-7-(4-((3R,6S)-6-ethylmorpholin-3-yl)phenyl)-3,7-dihydro-4H-pyrrolo[2,3-d]pyrimidin-4-one]
23 | < 0.1 µM | 0.079 µM | CC1(C(=O)N2CCC(O)(Cn3cnc4c(cc(Cl)n4-c4ccc([C@@H]5CO[C@@H](C6CC6)CN5)cc4)c3=O)CC2)CC1 [Example 100, 6-Chloro-7-(4-((3R,6S)-6-cyclopropylmorpholin-3-yl)phenyl)-3-((4-hydroxy-1-(1-methylcyclopropane-1-carbonyl)piperidin-4-yl)methyl)-3,7-dihydro-4H-pyrrolo[2,3-d]pyrimidin-4-one]
